Results reported in patent EP2474542A1 (priority 2010, dated 2012).
Like-named read-outs stand apart in the source and are kept apart here.

Legend:
[1] = logP determination (HPLC/MS characterisation, HCOOH); assay type: physicochemical
[2] = system: Phytophthora infestans; assay type: in vivo; details: preventive, young tomato plants sprayed, 100ppm of active ingredient, evaluated 7 days after the inoculation; 0% = untreated control, 100% = no disease
[3] = HCOOH, HPLC/MS, read-out: logP(HCOOH)

SMILES	chromatographic logP [1, 3]	chromatographic logP ([1]; Table 1, read-out: log P)	Eff.% [2]
Cn1nnnc1/C(=N\OCc1csc(N=C=O)n1)c1ccccc1 [(Z)-N-[(2-isocyanato-1,3-thiazol-4-yl)methoxy]-1-(1-methyl-1H-tetrazol-5-yl)-1-phenylmethanimine]	3.13	–	–
Cn1nnnc1/C(=N\OCc1csc(NC(=O)O/N=C/c2ccccc2)n1)c1ccccc1 [Example 1, ({4-[({[(Z)-(1-methyl-1H-tetrazol-5-yl)(phenyl)methylene]amino}oxy)methyl]-1,3-thiazol-2-yl}amino)({[(E)-phenylmethylene]amino}oxy)methanone]	3.39	3.13	95%
